According to patent US8420682B2, “N-phenylacetamide derivatives, which inhibit the enzyme SOAT-1, and pharmaceutical and cosmetic compositions containing them” (Galderma Research & Development, priority 2009, dated 2013):

Molecular target: T1, enzyme ACAT-1 (Homo sapiens, UniProt P35610)
T1 construct: endogenous in cells; host or cells: HepG2
T1 sequence (P35610 1-550): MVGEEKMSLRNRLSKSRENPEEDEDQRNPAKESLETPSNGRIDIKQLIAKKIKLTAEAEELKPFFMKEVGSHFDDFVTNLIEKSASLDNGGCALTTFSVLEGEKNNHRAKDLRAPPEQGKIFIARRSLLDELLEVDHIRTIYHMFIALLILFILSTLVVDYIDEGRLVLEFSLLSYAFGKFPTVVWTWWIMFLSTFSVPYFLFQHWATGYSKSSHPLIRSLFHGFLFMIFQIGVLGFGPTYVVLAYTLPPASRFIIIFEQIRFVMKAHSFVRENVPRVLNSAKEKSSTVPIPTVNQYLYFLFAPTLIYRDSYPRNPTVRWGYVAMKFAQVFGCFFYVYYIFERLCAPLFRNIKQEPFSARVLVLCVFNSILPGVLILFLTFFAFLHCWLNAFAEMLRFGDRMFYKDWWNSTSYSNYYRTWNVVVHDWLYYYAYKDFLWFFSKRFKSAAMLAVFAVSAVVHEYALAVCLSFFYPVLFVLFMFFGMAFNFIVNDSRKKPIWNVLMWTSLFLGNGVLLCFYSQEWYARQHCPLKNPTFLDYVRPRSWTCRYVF
Assay: HepG2 NBD-cholesterol fluorescence test for inhibitory activity towards the enzyme ACAT-1 (SOAT-1)
Assay type: cell-based
Settings: HepG2 cells, NBD-cholesterol 1 μg/ml, incubation 6 hours at 37° C., fluorescence read (excitation 490 nm, emission 540 nm)
Description: The compounds (I) according to the invention, and also the pharmaceutically acceptable salts, solvates and/or hydrates thereof, have inhibitory properties on the enzyme SOAT-1. This inhibitory activity on the enzyme SOAT-1 is measured according to a HepG2 primary […] test, as described in Example 7.
The compounds of formula (I) according to the invention were subjected to a test for evaluating their inhibitory activity towards the enzyme ACAT-1, inspired by the following publication: “Identification of ACAT1- and ACAT2-specific inhibitors using a novel, cell based fluorescence assay: individual ACAT uniqueness”, J. Lipid. Res. (2004) vol. 45, pages 378-386.
The principle of this test is based on the use of NBD-cholesterol, a cholesterol analogue whose fluorescence depends on its environment. When this molecule is in a polar environment, it is weakly fluorescent, whereas in a non-polar environment it is strongly fluorescent. Free NBD-cholesterol becomes inserted in cell membranes and is weakly fluorescent in this polar environment. When NBD-cholesterol is esterified with ACAT, the NBD-cholesterol ester enters non-polar lipid droplets and is then strongly fluorescent.
The method below is applied: HepG2 cells are incubated in the presence of NBD-cholesterol (1 μg/ml) and of the test compound of formula (I) in black transparent-bottomed 96-well plates, at a rate of 30 000 cells per well. After incubation for 6 hours at 37° C. under 5% CO2, the medium is removed by turning upside-down and the cells are washed with twice 100 μl of PBS. After addition of 50 μl of lysis buffer (10 mM NaPO4, 1% Igepal), the plates are shaken for 5 minutes and the fluorescence is read (excitation at 490 nm, emission at 540 nm) on a Fusion machine (Perkin-Elmer).

SMILES | IC50
CCOC(=O)c1ccc(N2C(=O)N(CC(=O)Nc3c(C(C)C)cccc3C(C)C)C(=O)C23CCCCC3)cc1 [Compound 1, 4-{3-[(2,6-Diisopropylphenylcarbamoyl)-methyl]-2,4-dioxo-1,3-diazaspiro[4.5]dec-1-yl}benzoic acid ethyl ester] | 2.4 nM
CC(C)c1cccc(C(C)C)c1NC(=O)CN1C(=O)N(c2ccc(C#N)cc2)C2(CCCCC2)C1=O [Compound 2, 2-[1-(4-Cyanophenyl)-2,4-dioxo-1,3-diaza-spiro[4.5]dec-3-yl]-N-(2,6-diisopropylphenyl)acetamide] | 77 nM
Cc1ccc(N2C(=O)N(CC(=O)Nc3c(C(C)C)cccc3C(C)C)C(=O)C23CCCCC3)cc1C#N [Compound 3, 2-[1-(3-cyano-4-methylphenyl)-2,4-dioxo-1,3-diaza-spiro[4.5]dec-3-yl]-N-(2,6-diisopropylphenyl)acetamide] | 2.5 nM
CSc1ccc(N2C(=O)N(CC(=O)Nc3c(C(C)C)cccc3C(C)C)C(=O)C23CCCCC3)cc1 [Compound 4, N-(2,6-diisopropylphenyl)-2-[1-(4-methylsulfanyl-phenyl)-2,4-dioxo-1,3-diazaspiro[4.5]dec-3-yl]acetamide] | 1.5 nM
CC(C)c1cccc(C(C)C)c1NC(=O)CN1C(=O)N(c2ccc(S(C)(=O)=O)cc2)C2(CCCCC2)C1=O [Compound 5, N-(2,6-Diisopropylphenyl)-2-[1-(4-methanesulfonylphenyl)-2,4-dioxo-1,3-diaza-spiro[4.5]dec-3-yl]acetamide] | 31 nM
